# Results as given in ChEMBL document CHEMBL5137004, “An overview on the synthetic urease inhibitors with structure-activity relationship and molecular docking” (Eur J Med Chem, 2022).
# pIC50, pKi: −log10 of the molar value.
# Legend:
# [1] = Inhibition of urease (unknown origin); details: for pIC50: read-out: IC50
# [2] = molecular target: T1, Urease (Canavalia ensiformis, UniProt P07374); experiment: Inhibition of jack bean urease assessed as reduction on ammonia production using urea as substrate incubated for 15 mins by indophenol reagent based microplate reader assay
# [3] = molecular target: T1, Urease; experiment: Inhibition of jack bean urease
# [4] = molecular target: T1, Urease; experiment: Inhibition of jack bean urease assessed as reduction on ammonia production using urea as substrate incubated for 30 mins by indophenol reagent based UV-vis spectrophotometer
# [5] = Antioxidant activity assessed as DPPH radical scavenging activity incubated for 30 mins; type: functional
# [6] = molecular target: Urease subunit alpha/Urease subunit beta (Helicobacter pylori (strain ATCC 700392 / 26695) (Campylobacterpylori), UniProt P69996); experiment: Inhibition of Helicobacter pylori urease; type: protein-complex assay
# [7] = Inhibition of urease (unknown origin) assessed as reduction on ammonia production using urea as substrate incubated for 15 mins by indophenol reagent based microplate reader assay
# [8] = molecular target: T1, Urease; experiment: Non-competitive inhibition of jack bean urease assessed as dissociation constant measured upto 10 mins by Lineweaver-Burk plot analysis
# [9] = molecular target: T1, Urease; experiment: Inhibition of jack bean urease assessed as reduction on ammonia production using urea as substrate incubated for 30 mins by indophenol method
# [10] = molecular target: T1, Urease; experiment: Inhibition of jack bean urease assessed as reduction on ammonia production using urea as substrate preincubated for 15 mins followed by substrate addition and measured after 15 mins by indophenol method
# Chain of Urease subunit alpha/Urease subunit beta (P69996 whole entry): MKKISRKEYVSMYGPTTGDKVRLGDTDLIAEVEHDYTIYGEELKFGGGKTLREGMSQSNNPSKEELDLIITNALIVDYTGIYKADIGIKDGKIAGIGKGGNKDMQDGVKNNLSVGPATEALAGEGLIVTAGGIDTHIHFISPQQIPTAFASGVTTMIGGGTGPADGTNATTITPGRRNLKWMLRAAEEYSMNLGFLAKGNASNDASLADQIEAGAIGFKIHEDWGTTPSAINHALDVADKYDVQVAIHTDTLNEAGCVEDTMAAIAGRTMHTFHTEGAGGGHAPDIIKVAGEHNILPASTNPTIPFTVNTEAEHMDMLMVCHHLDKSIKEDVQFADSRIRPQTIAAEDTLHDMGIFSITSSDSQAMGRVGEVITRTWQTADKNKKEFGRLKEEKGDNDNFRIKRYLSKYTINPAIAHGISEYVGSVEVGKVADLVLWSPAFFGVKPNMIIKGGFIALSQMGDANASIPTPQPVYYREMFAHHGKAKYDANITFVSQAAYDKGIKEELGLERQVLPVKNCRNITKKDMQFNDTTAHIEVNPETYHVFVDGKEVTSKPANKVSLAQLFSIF
# Chain of Urease subunit alpha/Urease subunit beta (P14916 whole entry, further chain): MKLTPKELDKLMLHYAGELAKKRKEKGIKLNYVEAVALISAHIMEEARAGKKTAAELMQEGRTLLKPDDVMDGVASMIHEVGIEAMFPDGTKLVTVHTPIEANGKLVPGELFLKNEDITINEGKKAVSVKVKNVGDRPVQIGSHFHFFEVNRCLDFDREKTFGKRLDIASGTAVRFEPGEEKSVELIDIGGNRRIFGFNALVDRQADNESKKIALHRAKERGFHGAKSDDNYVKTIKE
# T1 sequence (P07374 whole entry): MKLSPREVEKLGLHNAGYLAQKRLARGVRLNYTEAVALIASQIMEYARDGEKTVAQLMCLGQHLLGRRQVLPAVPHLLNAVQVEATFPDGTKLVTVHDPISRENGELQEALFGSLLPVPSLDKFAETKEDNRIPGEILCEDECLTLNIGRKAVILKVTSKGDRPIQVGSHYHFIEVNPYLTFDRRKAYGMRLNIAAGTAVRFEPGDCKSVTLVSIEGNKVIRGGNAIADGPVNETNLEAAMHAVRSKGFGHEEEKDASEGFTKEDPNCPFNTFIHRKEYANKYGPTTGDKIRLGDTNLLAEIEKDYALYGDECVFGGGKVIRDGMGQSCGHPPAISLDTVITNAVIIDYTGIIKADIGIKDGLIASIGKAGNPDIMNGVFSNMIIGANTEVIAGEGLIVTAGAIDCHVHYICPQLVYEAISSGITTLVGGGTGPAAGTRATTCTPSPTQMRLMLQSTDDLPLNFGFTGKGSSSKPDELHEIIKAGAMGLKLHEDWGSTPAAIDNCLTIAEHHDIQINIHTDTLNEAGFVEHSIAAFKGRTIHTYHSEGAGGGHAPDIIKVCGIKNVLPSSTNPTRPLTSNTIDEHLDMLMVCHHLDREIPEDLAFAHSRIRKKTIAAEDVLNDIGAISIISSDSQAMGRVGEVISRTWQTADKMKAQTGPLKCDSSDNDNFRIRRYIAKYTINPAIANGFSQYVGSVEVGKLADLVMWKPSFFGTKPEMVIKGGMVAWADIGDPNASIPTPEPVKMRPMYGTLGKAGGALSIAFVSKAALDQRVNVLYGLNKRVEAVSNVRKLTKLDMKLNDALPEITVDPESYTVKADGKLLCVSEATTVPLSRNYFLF
structure (smiles),measurement,setting,value
COc1ccc(/C=C/C(=O)c2ccc(O)cc2)cc1,pIC50,[1],4.94
O=C1Nc2ccc(Cl)cc2/C1=C\c1ccc(C(=O)N/N=C/c2c(O)cc(O)cc2O)cc1,pIC50,[1],4.89
NS(=O)(=O)c1ccc(NC=C2C(=O)NC(=S)NC2=O)cc1,pIC50,[2],5.42
O=C1NC(=S)NC(=O)C1=CNc1cc([N+](=O)[O-])ccc1C(=O)O,pIC50,[1],5.07
CC(C)=CCN1C(=O)/C(=N/Nc2ccccc2)c2ccccc21,pIC50,[1],6.15
Nc1cccc(C(c2c(O)c3ccccc3oc2=O)c2c(O)c3ccccc3oc2=O)c1,pIC50,[1],4.13
O=[N+]([O-])c1ccc(S(=O)(=O)N/N=C(\c2ccccc2)c2ccc(O)cc2)cc1,pIC50,[1],5.41
O=C(CC(O)c1cc(Cl)ccc1OCc1ccccc1)NO (configuration not stated),pIC50,[1],6.82
CCc1nc2cc([N+](=O)[O-])ccc2n1S(=O)(=O)c1ccc(C)cc1,pIC50,[3],4.51
Cc1nc2cc(Cl)c(Cl)cc2n1Cc1nnc(S)n1-c1ccc([N+](=O)[O-])cc1,pIC50,[4],7.53
COc1ccc(-c2c/c(=N\C(=O)Oc3ccccc3)c3c(O)cc(O[C@@H]4O[C@H](CO)[C@@H](O)[C@H](O)[C@H]4O[C@@H]4O[C@@H](C)[C@H](O)[C@@H](O)[C@H]4O)cc3o2)cc1O,pIC50,[5],5.25
same,pIC50,[2],4.81
CCNc1cc2c(cc1C)C1(c3cc(C)c(NCC)cc3O2)c2ccccc2C(=O)N1NC(=O)c1ccccc1,pIC50,[3],6.96
NNC(=O)c1ccc(C(=O)Cn2nc(-c3ccccc3O)nc2-c2ccccc2O)cc1,pIC50,[3],5.49
C[C@H](O)c1nc2ccccc2[nH]1,pIC50,[2],4.66
O=C(Cc1nnn[nH]1)Cn1nc(-c2ccccc2O)nc1-c1ccccc1O,pIC50,[3],5.90
Nn1c(-c2ccc(Br)cc2)n[nH]c1=S,pIC50,[3],5.37
CCc1nc2ccccc2c(=O)n1CC(=O)NNC(=O)c1cc2cc(Br)ccc2oc1=O,IC50,[1],1.26 µg/mL
CCOc1ccc(NC(=S)N(CC(O)COc2ccc(CC(N)=O)cc2)C(C)C)cc1 (configuration not stated),pIC50,[3],4.93
COc1cc(C(=O)c2c(O)c3ccccc3oc2=O)cc(OC)c1OC,pIC50,[3],4.95
O=C(COc1ccc(CC2C(=O)NC(=O)NC2=O)cc1)Nc1cccc(Cl)c1Cl,pIC50,[6],6.16
COc1ccc(-c2nc(C(=O)NC3CCCCC3)cs2)cc1,pIC50,[1],5.74
Cc1ncc([N+](=O)[O-])n1Cc1cn(Cc2ccc(F)cc2)nn1,pIC50,[3],5.70
COc1ccc(-c2c/c(=N\C(=S)Nc3cccc([N+](=O)[O-])c3)c3c(O)cc(O[C@@H]4O[C@H](CO)[C@@H](O)[C@H](O)[C@H]4O[C@@H]4O[C@@H](C)[C@H](O)[C@@H](O)[C@H]4O)cc3o2)cc1O,pIC50,[5],5.28
same,pIC50,[2],4.90
O=c1c2ccccc2nc(Cc2ccccc2)n1Cc1nnc(Nc2ccc([N+](=O)[O-])cc2)s1,IC50,[1],3.3 µg/mL
S=P(Nc1ccc(CCc2ccc(NP(=S)(c3ccccc3)c3ccccc3)cc2)cc1)(c1ccccc1)c1ccccc1,pIC50,[4],8.72
O=C(NNC(=S)Nc1ccc([N+](=O)[O-])cc1)c1ccc(-c2nc3ccccc3s2)cc1,pIC50,[7],5.85
CCNC1NN=C(Cn2c(Cc3ccc(F)cc3)nc3ccccc3c2=O)S1 (configuration not stated),pIC50,[3],5.33
O=[N+]([O-])c1ccc(S(=O)(=O)Nc2nnc(-c3ccc(C(c4c[nH]c5ccc(Br)cc45)c4c[nH]c5ccc(Br)cc45)cc3)s2)c([N+](=O)[O-])c1,pIC50,[1],6.30
COc1ccc(C(=O)NNC(=O)c2cc(Cl)cc(Cl)c2)cc1,pIC50,[1],6.06
C/C(=N\NC(=S)Nc1cccc([N+](=O)[O-])c1)c1cc2ccccc2o1,pIC50,[3],7.11
O=C(N/N=C/c1c(O)ccc2c(=O)cc(-c3ccc(F)cc3)oc12)c1ccccc1,pIC50,[1],5.92
O=C(/C=C/c1ccc(O)c(O)c1)O[C@@H]1C[C@](O)(C(=O)Nc2ccc(-c3ccc(Cl)cc3[N+](=O)[O-])cc2)CC(O)C1O (some centres not stated),pIC50,[5],5.29
same,pIC50,[3],4.96
Oc1ccc(C2Oc3cc(O)cc(O)c3/C(=N/C(=S)Nc3ccccc3)C2O)c(O)c1 (configuration not stated),pIC50,[2],5.13
CCCCCCCCCCCCCC(=O)NC(=S)Nc1cccc(Cl)c1,pKi,[8],7.68
same,pIC50,[9],7.41
Cc1ccc(/C=N/Nc2nc(-c3ccc(Br)cc3)cs2)cc1,pIC50,[1],6.96
COc1ccc2cc([C@@H](C)c3nc4cc(Cl)ccc4[nH]3)ccc2c1,pIC50,[2],4.44
Cc1nc2cc(Cl)c(Cl)cc2n1CC(=O)NNC(=S)Nc1ccc([N+](=O)[O-])cc1,pIC50,[4],7.45
CC(=O)NO [ACETOHYDROXAMIC ACID],pIC50,[1],4.53
O=C1O[C@H]([C@@H](O)CO)C(O)=C1O [ASCORBIC ACID],pIC50,[3],5.07
CC(C)NCC(O)COc1ccc(CC(N)=O)cc1 (configuration not stated) [ATENOLOL],pIC50,[10],4.19
NC(=O)NO [HYDROXYUREA],pIC50,[6],4.00
NC(N)=S [THIOUREA],pIC50,[6],4.64
same,pIC50,[9],4.74
